Experiment: Solubility of CBD in mineral oil
Type: physicochemical
Source text: Cannabidiol content. As discussed above, the matrices and TTDs of the present disclosure are advantageously formulated with a “saturated-plus-excess” concentration of CBD. The solubility of CBD in mineral oil (and by extension a PIB/mineral oil blend since PIB and mineral oil have the same solubility) is 4% (w/w). The amount of CBD in the matrix should be at least twofold, e.g., at least threefold, at least fourfold, or at least fivefold more CBD than the maximum concentration of CBD that dissolves in the plasticizer (e.g., mineral oil). The amount of CBD in the matrix can be any amount from about 10% (w/w) to about 30% (w/w) of the matrix, for example about 12.0% (w/w), about 12.5% (w/w), about 13.0% (w/w), about 13.5% (w/w), about 14.0% (w/w), about 14.5% (w/w), about 15.0% (w/w), about 15.5% (w/w), about 16.0% (w/w), about 16.5% (w/w), about 17.0% (w/w), about 17.5% (w/w), about 18.0% (w/w), about 18.5% (w/w), about 19.0% (w/w), about 19.5% (w/w), about 20.0% (w/w), or about 20.5% (w/w) of the matrix. The amount of cannabinoids other than CBD should be less than about 10% (w/w), for example less than about 1% (w/w).

For `C=C(C)[C@@H]1CCC(C)=C[C@H]1c1c(O)cc(CCCCC)cc1O` [CBD, cannabidiol], which “solubility of CBD in mineral oil (and by extension a PIB/mineral oil blend)” value is on record?
Its value is 4 % (w/w).

From patent publication US12370149B1, “Transdermal cannabidiol delivery device” (ZHI Technologies, Inc., priority 2024, dated 2025)
